Data reported in patent publication US20180084779A1, “PLANT DISEASE CONTROL AGENT AND USE THEREOF” (NIHON NOHYAKU CO., LTD., priority 2015, published 2018).

Legend:
[1] = test system: Septoria tritici, KUK-1-21 Strain; assay: Test for wheat leaf blotch, fluoroimide and/or SDHI agent sprayed on wheat pots, lesion area index 21 days after inoculation; assay type: in vivo; details: wheat, 21 days after inoculation
Protocol: (§1) Control effect (%)=[(Disease index of no treatment area−Disease index of treatment area)/Disease index of no treatment area]×100 [Formula 1]
(§2) The expected effect (expected value E) by using an active ingredient in combination with each of other active ingredients in the above tests was determined by the following Colby formula (see COLBY, S. R., Weeds 15: 20-22 (1967)).
(§3) E(Expected effect)=(X+Y)−(X×Y/100) [Formula 2]
(§4) Test for Wheat Leaf Blotch (Septoria tritici, KUK-1-21 Strain):
(§5) Agrochemical liquids containing a predetermined concentration of fluoroimide and/or a predetermined concentration of each SDHI agent were applied to wheat in a predetermined amount with a spray gun. After air drying, a suspension of fungus spore of Septoria tritici adjusted to 1.0×10^7 spores/ml was inoculated by spraying. After that, the wheat pots were kept in a growth chamber under a light condition of at 15° C. 100% RH to encourage the development of the disease. Twenty-one days after the inoculation, the lesion area index (0-10) was set and the controlling effects and expected values are examined in the same manner as Example 1.

[2] = test system: Septoria tritici, KUK-1-21 Strain; assay: Test for wheat leaf blotch, fluoroimide and/or DMI agent sprayed on wheat pots, lesion area index 17 days after inoculation; assay type: in vivo; details: wheat, 17 days after inoculation
Protocol: as §4
as §5, with “DMI” for “SDHI”, “Seventeen” for “Twenty-one”, “determined for” for “set and”, “evaluation of” for “controlling effects and expected values are examined in”, “control effect.” for “same manner as Example 1.”
as §1, §2, §3
X=controlling effect of fungicide A alone
Y=controlling effect of fungicide B alone

SMILES: O=C1C(Cl)=C(Cl)C(=O)N1c1ccc(F)cc1 [fluoroimide]
- Controlling Effect as single agent ([1]; fluoroimide alone 50 ppm): 5%
- Controlling Effect as single agent ([1]; fluoroimide alone 100 ppm): 25%
- Controlling Effect as single agent ([2]; fluoroimide alone 50 ppm): 25%
- Controlling Effect as single agent ([2]; fluoroimide alone 100 ppm): 50%
